Active and inactive are the calls of the source. The calls are words filed in the database; no cut-off is given here.

The subject of the first test is Mus musculus. The test can be described thus: Antiinflammatory activity against TPA-induced ear edema in mouse at 0.5 mg/ear topically. The format is functional.
On to `CC(=O)c1ccc(O[C@@H]2O[C@H](CO)[C@@H](O)[C@H](O)[C@H]2O)c(CC=C(C)C)c1`, for which the result was inactive. For the molecule `C=C(CO[C@@H]1O[C@H](CO)[C@@H](O)[C@H](O)[C@H]1O)[C@@H]1Cc2cc(C(C)=O)ccc2O1`, the outcome was inactive. On the same count and under the same terms, next, `C=C(C)C(O)Cc1cc(C(C)=O)ccc1O` (stereo not drawn): 68%; `Cc1occc(=O)c1O[C@@H]1O[C@H](CO)[C@@H](O)[C@H](O)[C@H]1O`: “inactive”. The same measure, in the same setting: next, `CC(=O)c1ccc(O[C@@H]2O[C@H](CO)[C@@H](O)[C@H](O)[C@H]2O)c(CCO)c1`: “inactive”; `CC(=O)c1ccc(O)c(CC=C(C)C)c1`: “inactive”; `C=C(CO)[C@@H]1Cc2cc(C(C)=O)ccc2O1` [BITALIN A]: 50%.

In another test the test system is Mus musculus. The test can be described thus: Antiinflammatory activity against TPA-induced ear edema in mouse assessed per ear drug treated topically. The format is functional.
The molecule `C=C(C)C(O)Cc1cc(C(C)=O)ccc1O` (stereo not drawn) displayed an ID50 of 0.63 µmol.
